Laboratory results: ChEMBL document CHEMBL1157539, “Thousands of chemical starting points for antimalarial lead identification” (Nature, 2010)

test system: Plasmodium falciparum; test: GSK_TCMDC: Inhibition of Plasmodium falciparum 3D7 in whole erythrocytes, using parasite LDH activity as an index of growth.; assay type: functional, organism-based; conditions: Plasmodium falciparum, 3D7

SMILES	XC50
CCCOc1cc(OCCC)cc(-c2ccc(C(=O)Nc3ccc4ccc(C)nc4c3)c(=O)[nH]2)c1	750 nM
Cc1cccc2nc(-c3ccc(-c4cccc(NCc5cn6cccnc6n5)c4)cc3)[nH]c12	787 nM
Cc1cc(-c2cccc(CNCCc3ccc(Cl)cc3)c2)cnc1N	1100 nM
COc1ccc(C2C(C(=O)OC3CCCC3)=C(C)NC3=C2C(=O)CCC3)cc1Br (stereo not given)	593 nM
COc1cc(-c2cc3cc(Cl)c(Cl)cc3[nH]2)ccc1C(=O)NCCC1CCCN1C (stereo not given)	969 nM
Brc1cc(CNCCCNc2nc3ccccc3[nH]2)sc1Br	221 nM
COc1ccc(C=NNc2ccnc3cc(F)c(C)cc23)c2ccccc12	771 nM
O=C(Nc1ccc(S(=O)(=O)N2CCCC2)cc1)c1cc(-c2cccnc2)nc2ccc(Cl)cc12	300 nM
CNC(=O)c1ccccc1Nc1nc(Nc2ccc(N3CCN(C)CC3)nc2)ncc1C	1140 nM
COc1cc(CNc2ccc(N3CCCC3)cc2)cc(Cl)c1OC	700 nM
COc1ccc(CN(C)CCCc2ccc(NC(=O)Cc3ccc4nc(-c5ccccc5)ccc4c3)cc2)cc1OC	534 nM
COc1cc2nc(N(C)CC3COc4ccccc4O3)nc(N)c2cc1OC (stereo not given)	1550 nM
CC[C@H]1CN2CCc3cc(OC)c(OC)cc3[C@@H]2C[C@@H]1C[C@H]1NCCc2c1cc(OC)c(O)c2I	216 nM
O=C(CC(c1ccccc1)c1ccccc1O)N1CCOCC1 (stereo not given)	1520 nM
N#Cc1cccc(NC(=O)c2ccc(S(=O)(=O)NCC3CCCN3CC3CCCCC3)cc2)c1 (stereo not given)	1050 nM
CC(C)(C)c1ccc(NC(=O)c2ccc(CN3CCCN(CC4CCCCC4)CC3)cc2)cc1	542 nM
Fc1ccc2[nH]c(-c3cccc(-c4ccc(CN5CCN(CCN6CCOCC6)CC5)cc4)c3)nc2c1	307 nM
CCc1ccc(CN2CCC(NC(=O)c3ccc(-c4ccc(N(C)C)cc4)s3)CC2)cc1	1210 nM
CCCCOc1ccc(CNCCCCCCNCc2ccc(OCCCC)c3ccccc23)c2ccccc12	1130 nM
O=C1CC(C(=O)O)CC(=O)N1	763 nM
CCCCOC(=O)[C@H](CCC)NC(=O)c1ccc(NS(=O)(=O)c2ccc3nc(N)[nH]c(=O)c3c2)cc1	198 nM
Cc1cc(C(=O)NC2CCN(Cc3ccccc3)CC2)ccc1-c1nc2cc(Cl)c(Cl)cc2[nH]1	959 nM
O=C(Cn1c(=O)cnc2ccccc21)Nc1cccc(C(=O)Nc2cccc(C(F)(F)F)c2)c1	277 nM
CCCCNCc1ccc(-c2nc(CN(Cc3ccc(Cl)c(Cl)c3)C(=O)CN(C)C)cs2)cc1	805 nM

SMILES	XC50
COc1ccccc1NC(=O)Nc1cccc(-c2ccc(-c3nc4cccc(C)c4[nH]3)s2)c1	579 nM
CC[C@H]1CN2CC[C@@H]1C[C@H]2[C@H](O)c1cc(-c2ccccc2)nc2ccc(O)cc12	189 nM
CCC1CN2CCc3c([nH]c4ccccc34)[C@@H]2C[C@@H]1CC1NCCc2cc(OC)c(OC)cc21 (stereo not given in full)	865 nM
c1cc(CNCC2CCCO2)cc(-c2cccc(-c3nc4ccccc4[nH]3)c2)c1 (stereo not given)	859 nM
CN1CCN(Cc2ccc(OCc3cccc(COc4ccc(CN5CCN(C)CC5)cc4I)c3)c(I)c2)CC1	1010 nM
CCc1ccc(CC(C)NCC(O)c2ccccc2)cc1 (stereo not given)	887 nM
CCOC(=O)c1c(C)n(-c2ccccc2)c2ccc(O)cc12	475 nM
Cc1cc(C2CCN(CCCCNC(=O)c3ccc(NC(=O)c4ccc(Cl)cc4)cc3)CC2)c(C)cc1OCc1ccccn1	801 nM
CC1CCC(NCc2ccc3c(CNC4CCC(C)CC4)c(O)ccc3c2O)CC1 (stereo not given)	116 nM
NC(=O)c1ccccc1Nc1nc(Nc2cc[nH]n2)ncc1Cl	958 nM
CC(Cc1ccc(CN(CC(N)=O)Cc2ccc(CC(C)NCCc3cccc(Cl)c3)cc2)cc1)NCCc1cccc(Cl)c1 (stereo not given)	665 nM
COc1ccccc1Cn1ccnc1SCC(=O)Nc1cc(C(F)(F)F)ccc1Cl	99.9 nM
CSCCC(C(=O)O)N1C(=O)c2ccccc2C1=O (stereo not given)	1030 nM
CCOC(=O)C(C(C)=O)C(c1ccccc1)C(C(C)=O)C(=O)OCC (stereo not given)	748 nM
Cc1cc(N[C@@H](Cc2ccccc2)C(=O)NCc2cccc(F)c2)nc(Nc2ccccc2)n1	930 nM
Cc1cc(=NN=Cc2ccccc2)c2cc(C(F)(F)F)ccc2[nH]1	153 nM
CCCN1CC[C@@H](CCCc2ccnc3ccc(O)cc23)[C@@H](CC)C1	889 nM
O=C(Nc1ccc(-c2cccc(-c3nc4cc(C(F)(F)F)ccc4[nH]3)c2)cc1)c1cccnc1	725 nM
CO/C(=C\C=C\c1cc2cc(Cl)c(Cl)cc2[nH]1)C(=O)NCCCN1CCN(c2ccc(OC)cc2)CC1	700 nM
Cc1nc2nc(N)nc(N)c2c(C)c1Cc1ccccc1I	351 nM
Cc1nc(-c2ccc(-c3ccc(C(=O)Nc4ccc(-n5ccnc5)c(N5CCN(C)CC5)c4)cc3)c(C)c2)no1	834 nM
C[C@@H](C(=O)N1CCOCC1)N1CC[C@H](NS(=O)(=O)c2ccc3ccnc(N)c3c2)C1=O	1500 nM
COc1ccc(NC(=O)/C=C/c2ccccc2Cl)cc1OCCN1CCC(O)(c2ccc(Cl)c(C(F)(F)F)c2)CC1	637 nM
O=C(C=Cc1ccc(Cl)c(Cl)c1)NCCCCCN1CCC(CCNS(=O)(=O)c2ccc(F)cc2)CC1	1090 nM

SMILES	XC50
O=C(/C=C/c1ccc(Cl)cc1)NCCCCCN1CCC(c2c[nH]c3ccccc23)CC1	838 nM
COc1ccc2c(OC)c(CNCCCCCCNCc3ccc4cc(OC)ccc4c3OC)ccc2c1	920 nM
Cc1cc(Cl)c(Cl)cc1NC(=O)Nc1cccc(C(F)(F)F)c1	873 nM
Cc1cc(N2CCCN(C)CC2)nc(Nc2ccc(Br)cc2)n1	723 nM
C=C(C)C1CC=C(CN2CCCC(n3ccc4cc(NC(=O)c5ccco5)ccc43)CC2)CC1 (stereo not given)	753 nM
O=C(NCc1ccc(F)cc1)Nc1cccc(-c2ccc(-c3nc4cc(F)ccc4[nH]3)cc2)c1	226 nM
Cc1cc(CNCCCCCCCNCc2cccc([N+](=O)[O-])c2)ccc1O	637 nM
CCOC(=O)[C@H](Cc1cccc2ccccc12)NC(=O)[C@H](CCC(=O)OC(C)(C)C)NC(=O)c1ccc(N(C)Cc2cnc3nc(N)nc(N)c3n2)cc1	663 nM
CC(CN(C)C)C(=O)Nc1cccc(-c2ccc(-c3nc4cc(F)ccc4[nH]3)s2)c1 (stereo not given)	801 nM
CCCCC#Cc1cnc2nc(N)[nH]c(=O)c2n1	646 nM
Cc1cc(N2CCN(C)CC2)nc2ccc(NC(=O)Cc3cccc(C(F)(F)F)c3)cc12	737 nM
CCCCN(CCCC)CCCN(CCCN(CCCC)CCCC)c1cc(C)nc(Nc2ccc(Br)cc2)n1	131 nM
O=C(N[C@H](Cc1ccc(Cl)cc1)C(=O)N1CCN(c2ccnc3cc(Cl)ccc23)CC1)[C@H]1Cc2ccccc2CN1	424 nM
OC1(C(F)(F)F)CC(c2ccccc2)=NN1c1nncc(-c2ccccc2)n1 (stereo not given)	735 nM
O=c1cc(-c2ccc3ccccc3c2)[nH]c2ccccc12	1160 nM
Fc1ccc2[nH]c(-c3cccc(-c4ccc(CN5CCCCC5)cc4)c3)nc2c1	163 nM
COc1ccc2nccc(N3CCCN(CCNCc4ccc5c(n4)NC(=O)CS5)CC3)c2n1	155 nM
CC(Cc1ccc(C(=O)Nc2ccc(CC(C)NCCc3cccc(Cl)c3)cc2)cc1)NCCc1ccc(C(F)(F)F)cc1 (stereo not given)	570 nM
N#Cc1ccc(N(CCNS(=O)(=O)c2cc(Br)c(Cl)s2)Cc2ccccc2C(F)(F)F)cc1C(F)(F)F	857 nM
COc1cc2ncnc(Nc3ccc4nc(Cc5ccccc5)[nH]c4c3)c2cc1OC	1480 nM
CCCc1c(C(=O)NC2CCC(CN3CCC(c4c[nH]c5ccccc45)CC3)CC2)cnn1-c1ccc(Cl)cc1 (stereo not given)	763 nM
Cc1cccc(CN2CCCN(Cc3ccc(C(=O)Nc4ccc(C(C)(C)C)cc4)cc3)CC2)c1	727 nM
